# Test system: thyroid hormone-regulated promoter (TRE) luciferase in HepG2 hepatocarcinoma cell
# Experiment: T3 promoter assay cell test (luciferase reporter)
# Type: cell-based
# Settings: Homo sapiens; stably transfected HepG2 cells, luciferase induction; one range stated for the listed examples together; read-out: effect in the T3 promoter assay cell test
# Protocol: The activity of the compounds according to the invention can be tested, for example, in vitro using the T3 Promoter Assay Cell test, which is described below:
# The test is carried out using a stably transfected human HepG2 hepatocarcinoma cell which expresses a luciferase gene under the control of a thyroid hormone-regulated promoter. The vector which is used for the transfection carries a minimal thymidine kinase promoter, containing a thyroid hormone-responsive element (TRE) which consists of two inverted palindromes of in each case 12 bp and an 8 bp spacer, upstream of the luciferase gene.
# For the test, the cell cultures are sown, in Eagle's minimal essential medium containing the following additions: glutamine, tricine [N(tris-(hydroxymethyl)-methyl)glycine], sodium pyruvate, non essential amino acids, (L-Ala, L-Asn, L-Asp, L-Pro, L-Ser, L-Glu, Gly), insulin, selenium and transferrin, in 96-well plates. The cultures are grown for 48 hours at 37° C. and under a 10% CO2 atmosphere. After that, serial dilutions of test substance or reference compound (T3, T4) and costimulator retinoic acid are added to the test cultures and the latter are incubated for a further 48 or 72 hours as before. Each substance concentration is tested in four replicates. In order to determine the luciferase which is induced by T3 or other substances, the cells are then lyzed by adding a buffer containing Triton and luciferin (from Promega) and immediately measured luminometrically.
row,EC50 [nM],Structure (SMILES)
1,0.5 to 240,"Cc1cc2oc(C(=O)O)cc2c(C)c1Oc1ccc(O)c(C(C)C)c1 [Example 17, 5-(4-Hydroxy-3-isopropylphenoxy)-4,6-dimethyl-1-benzofuran-2-carboxylic acid]"
2,0.5 to 240,"CCOC(=O)Cc1coc2c(C)c(Oc3ccc(OC)c(C(C)C)c3)c(C)cc12 [Example 18, Ethyl 2-[6-(3-isopropyl-4-methoxyphenoxy)-5,7-dimethyl-1-benzofuran-3-yl]acetate]"
3,0.5 to 240,"CCOC(=O)CC1Cc2c(cc(C)c(Oc3ccc(O)c(C(C)C)c3)c2C)O1 (stereo not shown) [Example 28, Ethyl [5-(4-hydroxy-3-isopropylphenoxy)-4,6-dimethyl-2,3-dihydro-1-benzofuran-2-yl]acetate]"
4,0.5 to 240,"CCOC(=O)c1cc2c(Br)c(Oc3ccc(O)c(C(=O)c4ccc(F)cc4)c3)c(Br)cc2o1 [Example 32, Ethyl 4,6-dibromo-5-[3-(4-fluorobenzoyl)-4-hydroxyphenoxy]-1-benzofuran-2-carboxylate]"
